The results in this text go back to patent US9624229B2, “Pyrimidine-2-amine compounds and their use as inhibitors of JAK kinases” (Rigel Pharmaceuticals, Inc., priority 2008, dated 2017).

Molecules are shown by their SMILES.

For one assay, the target named is Ba/F3 V617F cells (Homo sapiens, UniProt O60674, V617F, cells depend on it). Kind of assay: Proliferation assay (Cell Titer-Glo, 72 h) utilizing Ba/F3 V617F cells. The format is cell-based, mouse. To be noted: Ba/F3 V617F cells, proliferation, level of activity to inhibit JAK2, read-out: IC50 (the source's name). In outline: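 Readout is CellTiter-Glo luminescence after 72 h at 37 °C, giving IC50. Cells: Ba/F3 V617F, 1×10^5 cells/mL in RPMI with 10% FBS, treated in duplicate with 3-fold dilution series made from 5 mM DMSO stock, 1:250 in 5% FBS medium, added at 2×.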
Sequence of Ba/F3 V617F cells (O60674 whole entry V617F): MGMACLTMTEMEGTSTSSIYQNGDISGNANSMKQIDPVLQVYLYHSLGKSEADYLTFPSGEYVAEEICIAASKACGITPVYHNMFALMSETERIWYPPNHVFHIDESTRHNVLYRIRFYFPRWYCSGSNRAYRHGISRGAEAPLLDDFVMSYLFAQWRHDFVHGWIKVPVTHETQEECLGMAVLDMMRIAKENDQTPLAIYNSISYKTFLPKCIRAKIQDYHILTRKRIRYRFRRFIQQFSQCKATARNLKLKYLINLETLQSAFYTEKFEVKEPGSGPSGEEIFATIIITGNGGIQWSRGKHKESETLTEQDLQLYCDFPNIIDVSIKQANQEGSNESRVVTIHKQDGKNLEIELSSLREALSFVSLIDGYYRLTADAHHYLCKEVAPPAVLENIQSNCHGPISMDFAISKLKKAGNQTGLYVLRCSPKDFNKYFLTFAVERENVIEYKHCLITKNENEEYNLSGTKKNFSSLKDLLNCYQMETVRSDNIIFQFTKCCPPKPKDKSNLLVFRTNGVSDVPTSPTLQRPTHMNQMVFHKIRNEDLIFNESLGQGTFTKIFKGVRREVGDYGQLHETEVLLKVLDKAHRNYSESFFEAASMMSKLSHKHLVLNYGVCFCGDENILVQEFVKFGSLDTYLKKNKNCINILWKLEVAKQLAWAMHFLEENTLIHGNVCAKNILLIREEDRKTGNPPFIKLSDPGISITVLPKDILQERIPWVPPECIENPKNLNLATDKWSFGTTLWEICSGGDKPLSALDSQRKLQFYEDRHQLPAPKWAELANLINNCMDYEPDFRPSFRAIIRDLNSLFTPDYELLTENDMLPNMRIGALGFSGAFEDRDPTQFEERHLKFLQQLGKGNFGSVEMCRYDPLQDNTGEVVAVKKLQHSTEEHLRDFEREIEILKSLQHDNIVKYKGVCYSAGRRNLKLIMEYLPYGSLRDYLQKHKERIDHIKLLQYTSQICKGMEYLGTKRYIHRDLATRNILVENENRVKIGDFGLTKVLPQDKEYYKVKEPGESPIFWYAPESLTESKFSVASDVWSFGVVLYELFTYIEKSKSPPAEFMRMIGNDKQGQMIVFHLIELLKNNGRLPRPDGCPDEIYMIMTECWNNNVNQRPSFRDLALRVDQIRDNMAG
For orientation: Cellular ATP, detected with luciferase, serves as a proxy for viable cell number.
Turning to `CCC(=O)N1C[C@@H]2C[C@H]1CN2c1ccc(Nc2nccc(-c3ccc(NC(C)=O)nc3)n2)cc1C` [compound 149, 4-(6-(acetamido)pyridin-3-yl)-N-(3-methyl-4-((1S,4S)-5-ethylcarbonyl-2,5-diazabicyclo[2.2.1]heptan-2-yl)phenyl)pyrimidin-2-amine], the GI50 was under 1000 nM.

For `Cc1cc(Nc2nccc(-c3ccc(N)nc3)n2)ccc1N1C[C@@H]2C[C@H]1CN2S(C)(=O)=O` [compound 150, 4-(6-aminopyridin-3-yl)-N-(3-methyl-4-((1S,4S)-5-methylsulfonyl-2,5-diazabicyclo[2.2.1]heptan-2-yl)phenyl)pyrimidin-2-amine], the GI50 was under 1000 nM. Consider `Cc1cc(Nc2nccc(-c3ccc(NS(C)(=O)=O)nc3)n2)ccc1N1C[C@@H]2C[C@H]1CN2C` [compound 151, 4-(6-(methylsulfonylamino)pyridin-3-yl)-N-(3-methyl-4-((1S,4S)-5-methyl-2,5-diazabicyclo[2.2.1]heptan-2-yl)phenyl)pyrimidin-2-amine], for which the GI50 is 1000 to 10000 nM. As to `Cc1cc(Nc2nccc(-c3ccc(NC(=O)CN(C)C)nc3)n2)ccc1N1C[C@@H]2C[C@H]1CN2C` [compound 152, 4-(6-(2-(dimethylamino)acetamido)-pyridin-3-yl)-N-(3-methyl-4-((1S,4S)-5-methyl-2,5-diazabicyclo[2.2.1]heptan-2-yl)phenyl)pyrimidin-2-amine], the GI50 is under 1000 nM. Consider `CN1C[C@@H]2C[C@H]1CN2c1ccc(Nc2nccc(-c3ccc(NS(C)(=O)=O)nc3)n2)cc1F` [compound 153, 4-(6-(methylsulfonylamino)pyridin-3-yl)-N-(3-fluoro-4-((1S,4S)-5-methyl-2,5-diazabicyclo[2.2.1]heptan-2-yl)phenyl)pyrimidin-2-amine], for which the GI50 was in the range of 1000 to 10000 nM. Regarding `CN1C2CCC1CN(c1ccc(Nc3nccc(-c4ccc(N5CCOCC5)nc4)n3)cc1)C2` [compound 155, 4-(6-(morpholin-4-yl)pyridin-3-yl)-N-(4-(8-methyl-3,8-diazabicyclo[3.2.1]octan-3-yl)phenyl)pyrimidin-2-amine], the GI50 is under 1000 nM. In the case of `CN1C2CCC1CN(c1ccc(Nc3nccc(-c4ccc(NS(C)(=O)=O)nc4)n3)cc1)C2` [compound 156, 4-(6-(methylsulfonylamino)pyridin-3-yl)-N-(4-(8-methyl-3,8-diazabicyclo[3.2.1]octan-3-yl)phenyl)pyrimidin-2-amine], the GI50 is 1000 to 10000 nM.

For the molecule `CN1C2CCC1CN(c1ccc(Nc3nccc(-c4cnc5c(c4)OC(C)(C)C(=O)N5)n3)cc1)C2` [compound 157, 4-(2,2-dimethyl-3-oxo-3,4-dihydro-2H-pyrido[3,2-b][1,4]oxazin-7-yl)-N-(4-(8-methyl-3,8-diazabicyclo[3.2.1]octan-3-yl)phenyl)pyrimidin-2-amine], the GI50 was under 1000 nM. On to `CN1C2CCC1CN(c1ccc(Nc3nccc(-c4ccc(N)nc4)n3)cc1)C2` [compound 158, 4-(6-aminopyridin-3-yl)-N-(4-(8-methyl-3,8-diazabicyclo[3.2.1]octan-3-yl)phenyl)pyrimidin-2-amine], for which the GI50 was under 1000 nM. Take `Cc1cc(Nc2nccc(-c3ccc(N4CCOCC4)nc3)n2)ccc1N1CCN2CCC1CC2` [compound 159, 4-(6-(morpholin-4-yl)pyridin-3-yl)-N-(3-methyl-4-(1,4-diazabicyclo[3.2.2]nonan-4-yl)phenyl)pyrimidin-2-amine]: the GI50 is under 1000 nM. Same read-out and setting: in the case of `Cc1cc(Nc2nccc(-c3cnc4c(c3)OC(C)(C)C(=O)N4)n2)ccc1N1CCN2CCC1CC2` [compound 160, 4-(2,2-dimethyl-3-oxo-3,4-dihydro-2H-pyrido[3,2-b][1,4]oxazin-7-yl)-N-(3-methyl-4-(1,4-diazabicyclo[3.2.2]nonan-4-yl)phenyl)pyrimidin-2-amine] it was under 1000 nM; in that of `Cc1cc(Nc2nccc(-c3ccc(C(=O)Nc4ccccn4)cc3)n2)ccc1N1CCN2CCC1CC2` [compound 161, 4-(4-((pyridin-2-yl)aminocarbonyl)phenyl)-N-(3-methyl-4-(1,4-diazabicyclo[3.2.2]nonan-4-yl)phenyl)pyrimidin-2-amine], under 1000 nM. `CC(=O)Nc1ccc(-c2ccnc(Nc3ccc(N4CC5CCC(C4)N5C)cc3)n2)cc1` [compound 162, 4-(4-(acetamido)phenyl)-N-(4-(8-methyl-3,8-diazabicyclo[3.2.1]octan-3-yl)phenyl)pyrimidin-2-amine]: the GI50 is under 1000 nM. Consider `CCN(CC)c1nc(-c2ccnc(Nc3ccc(N4C[C@@H]5C[C@H]4CN5C)c(C)c3)n2)cs1` [compound 163, 4-(2-(diethylamino)thiazol-4-yl)-N-(3-methyl-4-((1S,4S)-5-methyl-2,5-diazabicyclo[2.2.1]heptan-2-yl)phenyl)pyrimidin-2-amine], for which the GI50 was under 1000 nM. On the same count and under the same terms, in the case of `CCN(CC)c1nc(-c2ccnc(Nc3ccc(N4C[C@@H]5C[C@H]4CN5C)c(F)c3)n2)cs1` [compound 164, 4-(2-(diethylamino)thiazol-4-yl)-N-(3-fluoro-4-((1S,4S)-5-methyl-2,5-diazabicyclo[2.2.1]heptan-2-yl)phenyl)pyrimidin-2-amine] it was under 1000 nM. With `Cc1cc(Nc2nccc(-c3cnc4c(c3)OC(C)(C)C(=O)N4)n2)ccc1N1CC2CCC(C1)N2C` [compound 165, 4-(2,2-dimethyl-3-oxo-3,4-dihydro-2H-pyrido[3,2-b][1,4]oxazin-7-yl)-N-(3-methyl-4-(8-methyl-3,8-diazabicyclo[3.2.1]octan-3-yl)phenyl)pyrimidin-2-amine], the GI50 is under 1000 nM.

`Cc1cc(Nc2nccc(-c3ccc(N4CCOCC4)nc3)n2)ccc1N1CC2CCC(C1)N2C` [compound 166, 4-(6-(morpholin-4-yl)pyridin-3-yl)-N-(3-methyl-4-(8-methyl-3,8-diazabicyclo[3.2.1]octan-3-yl)phenyl)pyrimidin-2-amine]: the GI50 is under 1000 nM. The same measure, in the same setting: for `Cc1cc(Nc2nccc(-c3ccc(NS(C)(=O)=O)nc3)n2)ccc1N1CC2CCC(C1)N2C` [compound 167, 4-(6-(methylsulfonylamino)pyridin-3-yl)-N-(3-methyl-4-(8-methyl-3,8-diazabicyclo[3.2.1]octan-3-yl)phenyl)pyrimidin-2-amine] the value was under 1000 nM.

Turning to `Cc1cc(Nc2nccc(-c3ccc(NC(=O)C(C)(C)C)cc3)n2)ccc1N1CC2CCC(C1)N2C` [compound 168, 4-(4-(t-butylcarbonylamino)phenyl)-N-(3-methyl-4-(8-methyl-3,8-diazabicyclo[3.2.1]octan-3-yl)phenyl)pyrimidin-2-amine], the GI50 is under 1000 nM.

As to `Cc1cc(Nc2nccc(-c3cc[nH]c3)n2)ccc1N1C[C@@H]2C[C@H]1CN2C` [compound 169, 4-(1H-pyrrol-3-yl)-N-(3-methyl-4-((1S,4S)-5-methyl-2,5-diazabicyclo[2.2.1]heptan-2-yl)phenyl)pyrimidin-2-amine], the GI50 fell in the range of 1000 to 10000 nM. With `CN1C[C@@H]2C[C@H]1CN2c1ccc(Nc2nccc(-c3cc[nH]c3)n2)cc1` [compound 170, 4-(1H-pyrrol-3-yl)-N-(4-((1S,4S)-5-methyl-2,5-diazabicyclo[2.2.1]heptan-2-yl)phenyl)pyrimidin-2-amine], the GI50 lay within 1000 to 10000 nM. On the same count and under the same terms, for `CN1C[C@@H]2C[C@H]1CN2c1ccc(Nc2nccc(-c3cc[nH]c3)n2)cc1C(F)(F)F` [compound 171, 4-(1H-pyrrol-3-yl)-N-(3-trifluoromethyl-4-((1S,4S)-5-methyl-2,5-diazabicyclo[2.2.1]heptan-2-yl)phenyl)pyrimidin-2-amine] the value was under 1000 nM.

Consider `CC1(C)Oc2cc(-c3ccnc(Nc4ccc(N5C[C@@H]6C[C@H]5CN6)c(C(F)(F)F)c4)n3)cnc2NC1=O` [compound 172, 4-(2,2-dimethyl-3-oxo-3,4-dihydro-2H-pyrido[3,2-b][1,4]oxazin-7-yl)-N-(3-trifluoromethyl-4-((1S,4S)-2,5-diazabicyclo[2.2.1]heptan-2-yl)phenyl)pyrimidin-2-amine], for which the GI50 is under 1000 nM. Take `CCOc1ccc(-c2ccnc(Nc3ccc(N4C[C@@H]5C[C@H]4CN5C)c(C)c3)n2)cn1` [compound 173, 4-(6-ethoxypyridin-3-yl)-N-(3-methyl-4-((1S,4S)-5-methyl-2,5-diazabicyclo[2.2.1]heptan-2-yl)phenyl)pyrimidin-2-amine]: the GI50 is under 1000 nM.

With `CCOc1ccc(-c2ccnc(Nc3ccc(N4C[C@@H]5C[C@H]4CN5C)c(F)c3)n2)cn1` [compound 174, 4-(6-ethoxypyridin-3-yl)-N-(3-fluoro-4-((1S,4S)-5-methyl-2,5-diazabicyclo[2.2.1]heptan-2-yl)phenyl)pyrimidin-2-amine], the GI50 was in the range of 1000 to 10000 nM. For `Cc1cc(Nc2nccc(-c3csc(N(C)C)n3)n2)ccc1N1C[C@@H]2C[C@H]1CN2C` [compound 175, 4-(2-(dimethylamino)thiazol-4-yl)-N-(3-methyl-4-((1S,4S)-5-methyl-2,5-diazabicyclo[2.2.1]heptan-2-yl)phenyl)pyrimidin-2-amine], the GI50 fell in the range of 1000 to 10000 nM.

`CN(C)c1nc(-c2ccnc(Nc3ccc(N4C[C@@H]5C[C@H]4CN5C)c(F)c3)n2)cs1` [compound 176, 4-(2-(dimethylamino)thiazol-4-yl)-N-(3-fluoro-4-((1S,4S)-5-methyl-2,5-diazabicyclo[2.2.1]heptan-2-yl)phenyl)pyrimidin-2-amine]: the GI50 was in the range of 1000 to 10000 nM.

The same assay, now with this note: inhibition of JAK2 activity, proliferation of Ba/F3 V617F cells, read-out: IC50 (the source's name).
Consider `Cc1cc(Nc2nccc(-c3ccc(NS(C)(=O)=O)nc3)n2)cnc1N1C[C@@H]2C[C@H]1CN2C` [compound 154, 4-(6-(methylsulfonylamino)pyridin-3-yl)-N-(5-methyl-6-((1S,4S)-5-methyl-2,5-diazabicyclo[2.2.1]heptan-2-yl)pyridin-3-yl)pyrimidin-2-amine], for which the GI50 is over 20000 nM.

As for `CN(C)c1nc(-c2ccnc(Nc3ccc(N4C[C@@H]5C[C@H]4CN5C)nc3)n2)cs1` [compound 177, 4-(2-(dimethylamino)thiazol-4-yl)-N-(6-((1S,4S)-5-methyl-2,5-diazabicyclo[2.2.1]heptan-2-yl)pyridin-3-yl)pyrimidin-2-amine], the GI50 was over 20000 nM.
